≈ marks a conversion by molar mass, not a printed value. Calls of active or inactive are those of the source. Unless noted, the calls are words filed in the database; no cut-off is given here.
Key:
Escherichia coli = test: Antibacterial activity against Escherichia coli SG 458; type: functional, organism-based
Proteus vulgaris = test: Antibacterial activity against Proteus vulgaris OX 19; type: functional, organism-based
[1] = test system: Mycolicibacterium smegmatis; test: Antimycobacterial activity against Mycobacterium smegmatis SG 987; type: functional, organism-based
Mycolicibacterium aurum [2] = test: Antimycobacterial activity against Mycobacterium aurum SB 66; type: functional, organism-based
Mycolicibacterium aurum [3] = test: Antimycobacterial activity against Mycobacterium aurum DSM 43536; type: functional, organism-based
Mycolicibacterium vaccae [4] = test: Antimycobacterial activity against Mycobacterium vaccae 10670; type: functional, organism-based
[5] = test system: Mycolicibacterium fortuitum; test: Antimycobacterial activity against Mycobacterium fortuitum B; type: functional, organism-based
[6] = test system: Sporobolomyces salmonicolor; test: Antimicrobial activity against Sporobolomyces salmonicolor SBUG 549; type: functional, organism-based
Candida albicans = test: Antifungal activity against Candida albicans; type: functional, organism-based
Colletotrichum = test: Antifungal activity against Glomerella; type: functional, organism-based
Mycobacterium avium [7] = test: Antimycobacterial activity against Mycobacterium avium MAC 100; type: functional, organism-based
Mycobacterium avium [8] = test: Antimycobacterial activity against Mycobacterium avium MAC 101; type: functional, organism-based
Mycobacterium avium [9] = test: Antimycobacterial activity against Mycobacterium avium MAC 108; type: functional, organism-based
Mycobacterium avium [10] = test: Antimycobacterial activity against Mycobacterium avium MAC 109; type: functional, organism-based
Mycobacterium avium [11] = test: Antimycobacterial activity against Mycobacterium avium MAC 116; type: functional, organism-based
Mycolicibacterium vaccae [12] = test: Antimycobacterial activity against Mycobacterium vaccae 10670 by agar diffusion assay; type: functional, organism-based
[13] = test system: Mycolicibacterium fortuitum; test: Antimycobacterial activity against Mycobacterium fortuitum B by agar diffusion assay; type: functional, organism-based
Mus musculus [14] = test: Toxicity in mouse assessed as change in body weight at 100 mg/kg, po qd for 5 days followed by 2 days rest and 200 mg/kg, po qd for 5 days; type: organism-based; details: in vivo
Mus musculus [15] = test: Toxicity in mouse assessed as change in gross appearance at 100 mg/kg, po qd for 5 days followed by 2 days rest and 200 mg/kg, po qd for 5 days; type: organism-based; details: in vivo
Mus musculus [16] = test: Toxicity in mouse assessed as behavioral change at 100 mg/kg, po qd for 5 days followed by 2 days rest and 200 mg/kg, po qd for 5 days; type: organism-based; details: in vivo
[17] = test system: Mycobacterium tuberculosis; test: Antimycobacterial activity against Mycobacterium tuberculosis Erdman infected in BALB/c mouse assessed as reduction of bacterial load at 200 mg/kg, po qd for 5 days per week administered 60 days after infection measured after 85 days post infection; type: functional, organism-based; design: dose 200 mg/kg
[18] = Chemical stability in simulated gastric fluid assessed as compound remaining after 2 hrs by HPLC analysis; type: physicochemical; details: simulated gi fluid
Liver microsomes = test: Metabolic stability in Sprague-Dawley rat microsomes assessed as compound remaining after 15 mins by HPLC analysis; type: ADME, Microsome; details: 0.25 h
[19] = test system: Mycobacterium tuberculosis; test: Antimycobacterial activity against Mycobacterium tuberculosis H37Rv ATCC 27294 in GAS medium after 1 week by microplate alamar blue assay; type: functional; details: H37Rv ATCC 27294, 168 h
[20] = test system: Mycobacterium tuberculosis; test: Antimycobacterial activity against Mycobacterium tuberculosis H37Rv ATCC 27294 in GAST medium after 1 week by microplate alamar blue assay; type: functional; details: H37Rv ATCC 27294, 168 h
Vero = test: Cytotoxicity against african green monkey Vero cells by colorimetric assay; type: cell-based; details: Chlorocebus sabaeus
Bacillus subtilis = test: Antibacterial activity against Bacillus subtilis ATCC 6633; type: functional, organism-based
Staphylococcus aureus = test: Antibacterial activity against Staphylococcus aureus SG 511; type: functional, organism-based
Micrococcus luteus = test: Antibacterial activity against Micrococcus luteus ATCC 10240; type: functional, organism-based
[21] = test system: Mycobacterium tuberculosis; test: Antimycobacterial activity against Mycobacterium tuberculosis H37Rv ATCC 27294 incubated 10 days under anaerobic condition measured after 24 hrs recovery in air by luciferase based low oxygen recovery assay; type: functional

Compound	Activity (Escherichia coli)	Activity (Proteus vulgaris)	Activity [1]	Activity (Mycolicibacterium aurum [2])	Activity (Mycolicibacterium aurum [3])	Activity (Mycolicibacterium vaccae [4])	Activity [5]	Activity [6]	Activity (Candida albicans)	Activity (Colletotrichum)	Activity (Mycobacterium avium [7])	Activity (Mycobacterium avium [8])	Activity (Mycobacterium avium [9])	Activity (Mycobacterium avium [10])	Activity (Mycobacterium avium [11])	Activity (Mycolicibacterium vaccae [12])	Activity [13]	Activity (Mus musculus [14])	Activity (Mus musculus [15])	Activity (Mus musculus [16])	also measured
COc1ccc(-c2nc(C(=O)OCc3ccccc3)co2)cc1	inactive	inactive	inactive	inactive	inactive	inactive	inactive	inactive	inactive	inactive	inactive	inactive	inactive	inactive	inactive	Active	Active	Non-toxic	Non-toxic	Non-toxic	Activity [17]: inactive; Stability [18]: 0.4%; Stability (Liver microsomes): 14%; MIC [19]: 1.72 µM (≈ 0.532 µg/mL); MIC [20]: 1.8 µM (≈ 0.557 µg/mL); IC50 (Vero): > 128 µM; Activity (Bacillus subtilis): inactive; Activity (Staphylococcus aureus): inactive; Activity (Micrococcus luteus): inactive
O=C(OCc1ccccc1)c1coc(-c2ccccc2Cl)n1	inactive	inactive	inactive	inactive	inactive	inactive	inactive	inactive	inactive	inactive	inactive	inactive	inactive	inactive	inactive	Active	Active	Non-toxic	Non-toxic	Non-toxic	Activity [17]: inactive; Stability [18]: 4.2%; Stability (Liver microsomes): 8.8%; MIC [19]: 0.73 µM (≈ 0.229 µg/mL); MIC [20]: 1.69 µM (≈ 0.53 µg/mL); IC50 (Vero): > 128 µM; MIC [21]: 11.4 µM (≈ 3.58 µg/mL); Activity (Bacillus subtilis): inactive; Activity (Staphylococcus aureus): inactive; Activity (Micrococcus luteus): inactive
O=C(OCc1ccccc1)c1coc(-c2ccccc2)n1	inactive	inactive	inactive	inactive	inactive	inactive	inactive	inactive	inactive	inactive	inactive	inactive	inactive	inactive	inactive	Active	Active	Non-toxic	Non-toxic	Non-toxic	Activity [17]: inactive; Stability [18]: 0.5%; Stability (Liver microsomes): 15%; MIC [19]: 0.47 µM (≈ 0.131 µg/mL); MIC [20]: 0.49 µM (≈ 0.137 µg/mL); IC50 (Vero): 121 µM; MIC [21]: 3.8 µM (≈ 1.06 µg/mL); Activity (Bacillus subtilis): inactive; Activity (Staphylococcus aureus): inactive; Activity (Micrococcus luteus): inactive
O=C(OCc1ccccc1)c1coc(-c2ccccc2OCc2ccccc2)n1	inactive	inactive	inactive	inactive	inactive	inactive	inactive	inactive	inactive	inactive	inactive	inactive	inactive	inactive	inactive	Active	Active	Non-toxic	Non-toxic	Non-toxic	Activity [17]: inactive; Stability [18]: 4.2%; Stability (Liver microsomes): 13%; MIC [19]: 62.6 µM (≈ 24.1 µg/mL); MIC [20]: 10.3 µM (≈ 3.97 µg/mL); IC50 (Vero): > 128 µM; Activity (Bacillus subtilis): inactive; Activity (Staphylococcus aureus): inactive; Activity (Micrococcus luteus): inactive
O=C(OCc1ccccc1)[C@@H]1COC(c2ccc(F)c([N+](=O)[O-])c2)=N1	inactive	inactive	inactive	inactive	inactive	inactive	inactive	inactive	inactive	inactive	inactive	inactive	inactive	inactive	inactive	Active	Active	Non-toxic	Non-toxic	Non-toxic	Activity [17]: inactive; Stability [18]: 2.2%; Stability (Liver microsomes): 13%; MIC [19]: 6.24 µM (≈ 2.15 µg/mL); MIC [20]: 0.95 µM (≈ 0.327 µg/mL); IC50 (Vero): > 128 µM; MIC [21]: 26 µM (≈ 8.95 µg/mL); Activity (Bacillus subtilis): inactive; Activity (Staphylococcus aureus): inactive; Activity (Micrococcus luteus): inactive
O=C(OCc1ccccc1)[C@@H]1COC(c2ccccc2)=N1	inactive	inactive	inactive	inactive	inactive	inactive	inactive	inactive	inactive	inactive	inactive	inactive	inactive	inactive	inactive	inactive	Active	Non-toxic	Non-toxic	Non-toxic	Activity [17]: inactive; Stability [18]: 0.4%; Stability (Liver microsomes): 5.7%; MIC [19]: 7.2 µM (≈ 2.03 µg/mL); MIC [20]: 4.42 µM (≈ 1.24 µg/mL); IC50 (Vero): > 128 µM; MIC [21]: 63 µM (≈ 17.7 µg/mL); Activity (Bacillus subtilis): inactive; Activity (Staphylococcus aureus): inactive; Activity (Micrococcus luteus): inactive

Reference: ChEMBL document CHEMBL1157845, “Structure-activity relationship of new anti-tuberculosis agents derived from oxazoline and oxazole benzyl esters” (Eur J Med Chem, 2010)
